Experimental data reported in US20140274683A1, “COMPOSITIONS AND METHODS FOR REPELLING POLLINATING INSECTS AND PROTECTING PLANTS AND CROPS AGAINST INSECTS AND/OR NEMATODES” (Bayer CropScience LP, priority 2013, published 2014).

Experiments:
Honeybees = test: Honeybee repulsion experiment at feeding stations with 50% sucrose; format: in vivo; details: 2% by weight in combination with 50% sucrose, feeding station
Description: FIG. 1 describes the feeding station arrangement (A and B) for the honeybee repulsion experiments described herein. As set forth in FIG. 1, panel (A) sets forth the bee cage positions on the left portion of panel (A) with the randomized feeding station positions on the right portion of panel (A). Panel (B) sets forth an alignment of the randomized feeding station positions with a distance of two meters between feeding stations. A total of eight feeding stations were evaluated at a ten meter distance in front of the respective bee hives. The feeding stations were placed two meters apart from one another.
Honeybees were trained to deep feeders (eight positions), each containing a 50% sucrose solution for one day. After the honeybees were trained to each feeder, the 50% sucrose feeder at randomized positions 1-8 was replaced with a shallow feeder containing a combination of repelling compounds and a 50% sucrose solution according to Table 5. In accordance with FIGS. 5 and 6, 2% by weight of Camphor oil (T4), Ajowan oil (T5), Camphor powder (T6), Rosemary oil (T7), and 2-Decanone (T8) in combination with a 50% sucrose treatment were added to feeders on day two.
Table 5 describes active agents evaluated for bee repulsion and their randomized feeding station positions. As described in Table 5, T1 (control), T2 (control), T3 (control), T4 (Camphor oil), T5 (Ajowan oil), T6 (Camphor powder), T7 (Rosemary oil), and T8 (2-Decanone).
FIG. 5 evaluates the number of bees visiting a respective feed station over a time interval. FIG. 6 sets forth the mean number of honeybees visiting feeding station over a period of four hours.

[1] = Stability test of Poncho 600 combined with α-terpineol, clothianidin content by HPLC; format: physicochemical; details: combined with alpha-terpineol, up to 54° C. for eight days
Description: Table 7 describes a stability test with a combination of α-terpineol and Poncho 600 evaluated at room temperature, 40° C., and 54° C. at zero time, 2 days, and 8 days as confirmed by HPLC.

[2] = Stability test of Poncho combined with Eugenol, clothianidin content by HPLC; format: physicochemical; details: up to 54° C. for seven days
Description: Table 6 describes a stability test with a combination of Eugenol and Poncho evaluated at room temperature, 40° C., and 54° C. at zero time, 3 days, and 7 days as confirmed by high performance liquid chromatography (HPLC).

SMILES	Honeybee repellency over the 4 hour assessment period (Honeybees; 4 hour assessment period)	Honeybee repellency at 24 hours (Honeybees)	Honeybee repellency at 24 hours (Honeybees; listed as 2-decanone)	Chemical stability of clothianidin content in Poncho [1]	Chemical stability of clothianidin content in Poncho [2]
CCCCCCCCC(C)=O [Compound 2-Decanone, 2-decanone]	highly repellent	exhibited repellency	still repellent	–	–
CN/C(=N\[N+](=O)[O-])NCc1cnc(Cl)s1 [clothianidin]	–	–	–	exhibited chemical stability	exhibited chemical stability
